Reference: patent US20140121201A1, “REGULATORY NETWORK FOR Th17 SPECIFICATION AND USES THEREOF” (priority 2012, published 2014)

Experiments:
[1] = test system: primary human macrophages; settings: cited from earlier work
STAT3 = biological target: T1, STAT3 (mouse, UniProt P42227 2-770); assay: co-immunoprecipitation of endogenous IRF4 from Th17-polarized cell lysate, western blot for STAT3
T1 construct: Endogenous transcription factor, probed by western blot (anti-STAT3, Cell Signaling) in the IRF4 immunoprecipitate
Procedure: Naïve CD4 positive T cells were sorted and cultured under Th17 polarizing conditions for 48 h prior to assay. Whole cells lysates were prepared with high salt buffer (10 mM Tris, 420 mM NaCl, 0.5% NP40, 1 mM EDTA), sonicated, spun to remove insoluble particles, and diluted to a final concentration of 150 mM NaCl for co-immunoprecipitation. Endogenous IRF4 was immunoprecipitated using anti-IRF4 antibody in the presence or absence of 50 ug/ml ethidium bromide.

T1 sequence (P42227 2-770 limits assumed): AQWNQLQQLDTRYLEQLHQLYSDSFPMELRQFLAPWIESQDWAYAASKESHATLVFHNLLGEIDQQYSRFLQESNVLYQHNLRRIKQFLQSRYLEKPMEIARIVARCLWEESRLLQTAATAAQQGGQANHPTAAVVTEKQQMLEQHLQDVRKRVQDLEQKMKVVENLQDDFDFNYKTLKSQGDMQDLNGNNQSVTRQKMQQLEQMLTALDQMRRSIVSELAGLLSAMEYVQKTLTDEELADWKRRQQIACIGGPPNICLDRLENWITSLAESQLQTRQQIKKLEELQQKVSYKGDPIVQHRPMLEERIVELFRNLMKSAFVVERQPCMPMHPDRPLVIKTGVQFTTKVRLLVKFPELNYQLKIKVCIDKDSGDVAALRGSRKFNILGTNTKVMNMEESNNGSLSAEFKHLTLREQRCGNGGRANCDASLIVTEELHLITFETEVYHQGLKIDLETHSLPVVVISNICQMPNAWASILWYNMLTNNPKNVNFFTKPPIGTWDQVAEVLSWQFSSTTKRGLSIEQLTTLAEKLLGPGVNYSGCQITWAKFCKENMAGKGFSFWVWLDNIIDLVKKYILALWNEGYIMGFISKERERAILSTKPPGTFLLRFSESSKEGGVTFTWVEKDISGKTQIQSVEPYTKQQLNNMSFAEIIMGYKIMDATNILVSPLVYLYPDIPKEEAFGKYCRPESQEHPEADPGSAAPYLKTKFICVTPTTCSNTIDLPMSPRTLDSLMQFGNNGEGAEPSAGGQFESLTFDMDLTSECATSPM

binding result (STAT3)	Molecule	IC50 [1] [µM]
	CCOC(=O)CCNc1cc(N2CCc3ccccc3CC2)nc(-c2ccccn2)n1 [GSK-J4]	9
no binding	IRF4 (other, mouse, UniProt Q64287 1-450, looked up, Endogenous transcription factor, immunoprecipitated with an anti-IRF4 antibody from Th17-polarized cell lysate; also called Endogenous IRF4) MNLETGSRGSEFGMSAVSCGNGKLRQWLIDQIDSGKYPGLVWENEEKSVFRIPWKHAGKQDYNREEDAALFKAWALFKGKFREGIDKPDPPTWKTRLRCALNKSNDFEELVERSQLDISDPYKVYRIVPEGAKKGAKQLTLDDTQMAMGHPYPMTAPYGSLPAQQVHNYMMPPHDRSWRDYAPDQSHPEIPYQCPVTFGPRGHHWQGPSCENGCQVTGTFYACAPPESQAPGIPIEPSIRSAEALALSDCRLHICLYYRDILVKELTTTSPEGCRISHGHTYDVSNLDQVLFPYPDDNGQRKNIEKLLSHLERGLVLWMAPDGLYAKRLCQSRIYWDGPLALCSDRPNKLERDQTCKLFDTQQFLSELQVFAHHGRPAPRFQVTLCFGEEFPDPQRQRKLITAHVEPLLARQLYYFAQQNTGHFLRGYELPEHVTTPDYHRSLRHSSIQE	
